“Also recorded” adds a separate entry of the source.
Experiments:
cats with renal failure = test: Body weight of cats with renal failure during administration; assay type: in vivo, cat
Protocol: (§1) […] The administration was conducted every day and continued basically for 6 months, and in cases where the owner desired, the administration was continued even after the test period. The Examples of the present invention include both cases where the dosing period was less than 6 months and more than 6 months.

[1] = system: cats with chronic renal failure; test: Blood biochemical analysis and urinalysis (BUN, serum Cre, glucose) in cats with chronic renal failure; assay type: in vivo, cat
Protocol: Testing methods for the patients showing uremia caused by chronic renal failure, employed in Example 4 or later, will now be described. The criteria and evaluation items for the cats and dogs with chronic renal failure are as follows: Diagnosis of uremia and chronic renal failure were performed totally taking clinical findings (including findings of uremia) and the results of the blood test, blood biochemical analysis and urinalysis into consideration. As the clinical findings of uremia, existence and degree of polydipsia and diuresis, dehydration, anorexia, weight loss, vomiting symptom and state of dehydration were observed. Existence of chronic renal failure was judged based on the serum Cre value as generally employed. As reference data for grasping the degree of progress of chronic renal failure, BUN value was also monitored.
In the blood test, RBC, WBC, PCV, Hg and PLT were measured. In the blood biochemical analysis, TP, Tcho, AST, ALT, ALP, Tbil, BUN, creatinine, calcium, inorganic phosphorus, glucose, sodium ion, potassium ion and chloride ion were measured. In the urinalysis, protein amount, pH, occult blood, bilirubin and glucose were measured. To eliminate the circadian rhythm and influence by meals on the values of blood biochemical markers, every blood collection was carried out in the morning before feeding (at fasting).
As a more specific criterion for chronic renal failure in cats and dogs in the present Examples, a serum Cre value of 1.4 mg/dL in the blood test was employed. Serum Cre value was measured by creatinine deaminase-amidohydrolase method, and the BUN value as reference data for grasping the degree of progress of chronic renal failure was measured by urease-GLDH method.
Administration of beraprost sodium was conducted by orally administering the tablet with a content of 150 μg/tablet (Example 1) twice a day (300 μg/head/day). The administration was conducted every day and continued basically for 6 months, and in cases where the owner desired, the administration was continued even after the test period. The Examples of the present invention include both cases where the dosing period was less than 6 months and more than 6 months.

[2] = system: patients with renal failure; settings: renal failure in conservative stage; cited from earlier work
[3] = system: rats which spontaneously develops hypertension; settings: administered together with saline and special diet; cited from earlier work
[4] = system: immune complex-induced glomerulonephritis mouse NZB/WF1; settings: administered before onset; cited from earlier work
[5] = system: cats with chronic renal failure; test: Adverse events during treatment of cats with chronic renal failure; assay type: in vivo, cat
Protocol: This pilot clinical test was performed after obtaining informed consent of the owners of the cats (clients) before the start of the test, wherein the clients received explanations about the fact that beraprost sodium had already been approved as a drug for human chronic artery obstruction and had already been marketed, and about the safety thereof. Further, giving first priority to the benefit of the patients and clients, conventional therapeutic methods were also combined appropriately for the individuals with progressed renal failure. Examples of the concomitant drugs employed include synthetic active carbons such as Covalzin, Kremezin and Nefguard; calcium preparations such as calcium carbonate; formula meals such as k/d and low-protein diets; and infusion solutions. However, in cases where there was a rational reason and consent by the owner was obtained, beraprost sodium alone was administered even to the individual with progressed renal failure. On the other hand, drugs thought to influence on the action of beraprost sodium, such as vasodilators (e.g., enalapril), diuretic (e.g., furosemide), drugs which influence on renal blood flow (e.g., dopamine) and steroids (e.g., prednisolone) were not used.
as §1

[6] = Case-A, 150 μg oral BID alone, from start of administration
[7] = Case-A, 6 months after termination (12 months after start)
[8] = Case-B, daily administration for 1 and half years
[9] = Case-E, combination therapy, first about 3 months
[10] = Case-G cat, before the administration (baseline)

## CC#CC[C@@H](C)[C@H](O)/C=C/[C@@H]1[C@H]2c3cccc(CCCC(=O)[O-])c3O[C@H]2C[C@H]1O.[Na+] (mixture of isomers) [beraprost sodium, Sodium rac-(1R,2R,3aS,8bS)-2,3,3a,8b-tetrahydro-2-hydroxy-1-[(E)-(3S,4RS)-3-hydroxy-4-methyloct-1-en-6-ynyl]-1H-cyclopenta[b][1]benzofuran-5-butanoate]
Cats with renal failure; Case-A, age 5, month 0
  Changes in Body Weight during Administration of Beraprost Sodium: 5.2 kg
Cats with renal failure; Case-A, month 1
  Changes in Body Weight during Administration of Beraprost Sodium: 5.5 kg
Cats with renal failure; Case-A, month 2
  Changes in Body Weight during Administration of Beraprost Sodium: 5.5 kg
Cats with renal failure; Case-A, month 3
  Changes in Body Weight during Administration of Beraprost Sodium: 5.5 kg
Cats with renal failure; Case-A, month 4
  Changes in Body Weight during Administration of Beraprost Sodium: 5.7 kg
Cats with renal failure; Case-A, month 5
  Changes in Body Weight during Administration of Beraprost Sodium: 5.7 kg
Cats with renal failure; Case-A, month 6
  Changes in Body Weight during Administration of Beraprost Sodium: 6.0 kg
Cats with renal failure; Case-B, age 4, month 0
  Changes in Body Weight during Administration of Beraprost Sodium: 3.5 kg
Cats with renal failure; Case-B, month 1
  Changes in Body Weight during Administration of Beraprost Sodium: 3.6 kg
Cats with renal failure; Case-B, month 2
  Changes in Body Weight during Administration of Beraprost Sodium: 3.6 kg
Cats with renal failure; Case-B, month 3
  Changes in Body Weight during Administration of Beraprost Sodium: 3.7 kg
Cats with renal failure; Case-B, month 4
  Changes in Body Weight during Administration of Beraprost Sodium: 3.9 kg
Cats with renal failure; Case-B, month 5
  Changes in Body Weight during Administration of Beraprost Sodium: 4.0 kg
Cats with renal failure; Case-B, month 6
  Changes in Body Weight during Administration of Beraprost Sodium: 4.0 kg
Cats with renal failure; Case-B, with amelioration of uremic symptoms
  body weight: increased
Cats with renal failure; Case-C, age 16, month −1 (before administration)
  Changes in Body Weight during Administration of Beraprost Sodium: 2.8 kg
Cats with renal failure; Case-C, month 0
  Changes in Body Weight during Administration of Beraprost Sodium: 2.7 kg
Cats with renal failure; Case-C, month 1
  Changes in Body Weight during Administration of Beraprost Sodium: 2.8 kg
Cats with renal failure; Case-C, month 2
  Changes in Body Weight during Administration of Beraprost Sodium: 2.9 kg
Cats with renal failure; Case-C, month 3
  Changes in Body Weight during Administration of Beraprost Sodium: 2.9 kg
Cats with renal failure; Case-C, month 4
  Changes in Body Weight during Administration of Beraprost Sodium: 2.9 kg
Cats with renal failure; Case-C, month 5
  Changes in Body Weight during Administration of Beraprost Sodium: 3.0 kg
Cats with renal failure; Case-C, month 6
  Changes in Body Weight during Administration of Beraprost Sodium: 3.0 kg
Cats with renal failure; Case-D, age 17, month −1 (before administration)
  Changes in Body Weight during Administration of Beraprost Sodium: 4.5 kg
Cats with renal failure; Case-D, after one month
  body weight: increased
Cats with renal failure; Case-D, month 0
  Changes in Body Weight during Administration of Beraprost Sodium: 4.5 kg
Cats with renal failure; Case-D, month 1
  Changes in Body Weight during Administration of Beraprost Sodium: 4.5 kg
Cats with renal failure; Case-D, month 2
  Changes in Body Weight during Administration of Beraprost Sodium: 4.9 kg
Cats with renal failure; Case-D, month 3
  Changes in Body Weight during Administration of Beraprost Sodium: 4.9 kg
Cats with renal failure; Case-D, month 4
  Changes in Body Weight during Administration of Beraprost Sodium: 4.9 kg
Cats with renal failure; Case-D, month 5
  Changes in Body Weight during Administration of Beraprost Sodium: 4.9 kg
Cats with renal failure; Case-E, age 14, combination therapy, month 0
  Changes in Body Weight during Administration of Beraprost Sodium: 3.5 kg
Cats with renal failure; Case-E, combination therapy, month 1
  Changes in Body Weight during Administration of Beraprost Sodium: 3.8 kg
Cats with renal failure; Case-E, combination therapy, month 2
  Changes in Body Weight during Administration of Beraprost Sodium: 3.7 kg
Cats with renal failure; Case-E, combination therapy, month 3
  Changes in Body Weight during Administration of Beraprost Sodium: 3.6 kg
Cats with renal failure; Case-E, combination therapy, month 4
  Changes in Body Weight during Administration of Beraprost Sodium: 3.7 kg
Cats with renal failure; Case-E, combination therapy, month 5
  Changes in Body Weight during Administration of Beraprost Sodium: 3.7 kg
Cats with renal failure; Case-E, combination therapy, month 6
  Changes in Body Weight during Administration of Beraprost Sodium: 3.6 kg
Cats with renal failure; Case-F, age 11, combination therapy, month 0
  Changes in Body Weight during Administration of Beraprost Sodium: 4.7 kg
Cats with renal failure; Case-F, combination therapy, month 1
  Changes in Body Weight during Administration of Beraprost Sodium: 5.0 kg
Cats with renal failure; Case-F, combination therapy, month 2
  Changes in Body Weight during Administration of Beraprost Sodium: 5.0 kg
Cats with renal failure; Case-F, combination therapy, month 3
  Changes in Body Weight during Administration of Beraprost Sodium: 5.5 kg
Cats with renal failure; Case-F, combination therapy, month 4
  Changes in Body Weight during Administration of Beraprost Sodium: 5.5 kg
Cats with renal failure; Case-F, combination therapy, month 5
  Changes in Body Weight during Administration of Beraprost Sodium: 5.7 kg
Cats with renal failure; Case-F, combination therapy, month 6
  Changes in Body Weight during Administration of Beraprost Sodium: 5.8 kg
Cats with renal failure; Case-G, 40 μg/head/BID, Day 14
  body weight: 3.83 kg
Cats with renal failure; Case-G, 40 μg/head/BID, Day 56
  body weight: 3.95 kg
Cats with renal failure; Case-G, before the administration (baseline)
  body weight: 3.2 kg
[1]; Case-A, 150 μg oral BID alone
  time at which BUN reached the minimum value: second
  time at which serum Cre reached the minimum value: fifth
[1]; [6]
  BUN: decreased
  serum Cre: decreased
[1]; [7]
  BUN at follow up: remained within the normal ranges; also recorded: maintained at normal levels
  serum Cre value at follow up: remained within the normal ranges; also recorded: maintained at normal levels
[1]; [8]
  BUN: maintained at the normal levels
  Cre: maintained at the normal levels
[1]; Case-B, first to second month
  BUN value: tendency that BUN value and serum Cre value increase
  serum Cre value: tendency that BUN value and serum Cre value increase
[1]; Case-B, from the fourth month
  BUN value: sharply decreased to the normal values
  serum Cre value: sharply decreased to the normal values
[1]; Case-C, during administration
  BUN value: continuously increased
  serum Cre value: did not change or slightly increased
[1]; Case-D, after administration
  BUN value: continuously increased
  serum Cre value: kept a high value
[1]; Case-E, 7th to 8th month
  BUN value: largely increased
  Cre value: kept high
[1]; [9]
  BUN value: continuously increased
  serum Cre value: kept high
[1]; Case-F, after start of beraprost sodium
  BUN value: kept high
[1]; Case-F, throughout the entire period
  serum Cre value: continuously increased
[1]; [10]
  BUN value: 52.2 mg/dL
  serum Cre value: 2.56 mg/dL
[2]
  renal function (creatinine clearance or reciprocal of serum creatinine): reduced the decrease in renal function
[3]
  onset of glomerulonephritis (urinary protein excretion, glomerulus tissue image): prevented
[4]
  onset of glomerulonephritis (index: urinary excretion of albumin): can be inhibited
[5]; Case-A, 150 μg oral BID, 6 months
  adverse events such as diarrhea, vomiting: no adverse event
[5]; Case-B, daily administration continued for 1 and half years
  adverse events: no adverse event has been observed at all
[5]; Case-C, 150 μg oral BID alone
  adverse events such as diarrhea, vomiting: no adverse event
[5]; Case-D, 150 μg oral BID alone
  adverse events such as diarrhea, vomiting: no adverse event
[5]; Case-E, 150 μg oral BID, combination therapy
  adverse events such as diarrhea, vomiting: no adverse event
[5]; Case-F, 150 μg oral BID, combination therapy
  adverse events such as diarrhea, vomiting: no adverse event
[5]; Case-G, 40 μg/head/BID
  adverse events such as diarrhea, vomiting: no adverse event

From US9783518B2, “Therapeutic agent and treatment method for ameliorating uremia” (Toray Industries, Inc., priority 2005, dated 2017)
